Assay results from patent publication US20240180883A1, “TREATMENT OF MIGRAINE” (Allergan Pharmaceuticals International Limited, priority 2020, published 2024).
Values joined by “and” are separate entries in the source; they are usually repeats but may differ in a detail not shown here. Identical values can stand only once.

What was measured:
[1] = Phase 1 food effect study, 100 mg tablet fed vs fasted; type: in vivo, human; conditions: for AUC(0-inf) / AUC(0-t) / Cmax / Tmax / Vd/F / half-life: both sexes, human, plasma, oral, 100 mg; for Vd/F: read-out: Vz/F, arithmetic mean (CV %); for half-life: read-out: t1/2, mean (CV %) (converted)
Method: The treatments were administered in 1 of 2 sequences in periods 1 and 2 with a washout period of at least 7 days between each treatment.
Eighteen healthy participants with a mean age of 28.4 years (range: 20 to 39 years) were enrolled. The majority of participants were male (14 of 18, 77.8%). […] Mean (SD) weight was 75.99 ([…]) kg and mean (SD) BMI was 25.03 (3.290) kg/m2. Participants were randomly assigned one of two treatments in 1 of 2 sequences in Periods 1 and 2, with a washout period of at least 7 days between each study treatment.
For fed participants, the standardized high-fat (approximately 50% of total caloric content of the meal) and high-calorie (total of approximately 800 to 1000 calories) breakfast derived approximately 150 calories from protein, 250 calories from carbohydrates, and 500 to 600 calories from fat. An example of a high-fat breakfast meal would be 2 eggs fried in butter, 2 strips of bacon, 2 slices of toast with butter, 4 ounces of hash brown potatoes, and 8 ounces of whole milk. […] Participants who were randomly assigned to receive ubrogepant under fed conditions were required to consume the high-fat, high-calorie breakfast in full. For all participants, no food was allowed for 4 hours following study treatment administration. Water was allowed as desired except for 1 hour before and 1 hour after study treatment administration.

[2] = molecular target: P-gp (Homo sapiens, UniProt P08183); test: P-gp transporter substrate in vitro; type: in vitro ADME
[3] = Phase 1 hepatic impairment PK study, single 100 mg dose; type: in vivo, human; conditions: 100 mg single oral dose; for AUC(0-inf) / AUC(0-t) / Cmax / Tmax / Vd/F / half-life: both sexes, human, plasma, po, 100 mg; for Tmax: read-out: Tmax, median (min-max); for Vd/F: read-out: Vz/F, mean ±SD; for half-life: read-out: t1/2, mean ±SD (converted)
Text: The study was intended to enroll 24 male and female participants with hepatic impairment (8 mildly impaired, 8 moderately impaired, and 8 severely impaired) and 8 healthy male and female participants with normal hepatic function, aged 18 through 75 years, who were matched closely to the age, weight, and gender of the hepatically impaired groups.
Participants with hepatic impairment were categorized according to the Child-Pugh classification. Participants with moderate hepatic impairment (Child-Pugh B classification) were not enrolled until 4 patients with mild hepatic impairment (Child-Pugh A classification) had completed the study; participants with severe hepatic impairment (Child-Pugh C classification) were not to be enrolled until 4 patients with moderate hepatic impairment had completed the study. […] Healthy participants with normal hepatic function were recruited after participants with hepatic impairment had been enrolled in the study, in order to match them as closely as possible to the hepatically impaired participants with respect to age, weight, and gender. Participants with normal hepatic function were matched specifically according to age, not to exceed 5 years between the means of the normal group and the 3 hepatically impaired groups. Weight range deviated<20% between the means of the normal group and the 3 hepatically impaired groups; and gender, as much as possible to match the ratio of the normal hepatic function group to the 3 hepatically impaired groups.
Fasting continued for 4 hours after dosing. Because minimal to no accumulation was expected after once daily repeated dosing for ubrogepant, a single-dose study was considered adequate to satisfy the objectives of the present study.
Sampling was also done at the following times for plasma protein binding determinations: Day 1 at 0 hour (predose) and 2 hours post dose.

[4] = Study A: drug interaction PK with verapamil or ketoconazole; type: in vivo, human; conditions: for AUC(0-inf) / half-life / Cmax / Tmax: human, plasma, oral
Text: Study A (verapamil and ketoconazole) comprised 3 treatment periods.
Healthy adults aged 19-50 years for Study A and 18-45 years for Study B were eligible to participate. […] For study B, participants had to have a BMI between 18.0 and 30 kg/m^2. Exclusion criteria for both studies included hypersensitivity to any study drug; exposure to hepatitis B virus, hepatitis C virus, or HIV; or use of any drug or substance known to affect CYP enzymes or P-gp.

Chain of P-gp (P08183 whole entry): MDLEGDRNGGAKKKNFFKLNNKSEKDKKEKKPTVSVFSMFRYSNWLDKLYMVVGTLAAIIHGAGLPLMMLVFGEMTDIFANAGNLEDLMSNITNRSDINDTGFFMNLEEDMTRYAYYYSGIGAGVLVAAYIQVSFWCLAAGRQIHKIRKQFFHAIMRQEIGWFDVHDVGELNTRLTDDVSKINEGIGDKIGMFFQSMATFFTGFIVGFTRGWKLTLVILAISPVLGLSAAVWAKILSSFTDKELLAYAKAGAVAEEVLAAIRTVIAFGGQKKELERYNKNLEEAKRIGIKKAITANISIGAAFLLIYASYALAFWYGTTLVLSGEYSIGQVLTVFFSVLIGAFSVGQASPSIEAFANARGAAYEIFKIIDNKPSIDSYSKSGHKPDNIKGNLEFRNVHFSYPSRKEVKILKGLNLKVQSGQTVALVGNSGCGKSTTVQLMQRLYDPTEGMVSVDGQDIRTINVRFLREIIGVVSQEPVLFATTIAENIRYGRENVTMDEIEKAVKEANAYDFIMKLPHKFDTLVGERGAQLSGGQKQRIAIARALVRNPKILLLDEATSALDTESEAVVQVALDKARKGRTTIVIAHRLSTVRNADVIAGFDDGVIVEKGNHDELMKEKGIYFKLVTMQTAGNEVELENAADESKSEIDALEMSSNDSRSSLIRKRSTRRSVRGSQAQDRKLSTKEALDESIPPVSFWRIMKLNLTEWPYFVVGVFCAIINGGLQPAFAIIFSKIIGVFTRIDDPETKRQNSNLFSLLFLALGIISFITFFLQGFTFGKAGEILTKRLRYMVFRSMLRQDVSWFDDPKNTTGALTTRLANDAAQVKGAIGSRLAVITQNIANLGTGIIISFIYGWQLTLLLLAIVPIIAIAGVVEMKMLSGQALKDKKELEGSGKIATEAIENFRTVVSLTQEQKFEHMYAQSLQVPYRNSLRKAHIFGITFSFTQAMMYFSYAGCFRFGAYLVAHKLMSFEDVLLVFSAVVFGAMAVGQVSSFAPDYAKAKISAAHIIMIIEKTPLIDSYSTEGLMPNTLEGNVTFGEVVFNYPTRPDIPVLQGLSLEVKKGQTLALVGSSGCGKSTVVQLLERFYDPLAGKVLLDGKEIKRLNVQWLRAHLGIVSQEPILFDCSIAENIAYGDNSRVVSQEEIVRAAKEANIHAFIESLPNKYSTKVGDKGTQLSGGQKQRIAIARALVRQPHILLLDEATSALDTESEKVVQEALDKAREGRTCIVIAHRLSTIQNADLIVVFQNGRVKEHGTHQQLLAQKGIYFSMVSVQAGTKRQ

Structure (SMILES): C[C@@H]1[C@H](c2ccccc2)C[C@H](NC(=O)c2cnc3c(c2)C[C@@]2(C3)C(=O)Nc3ncccc32)C(=O)N1CC(F)(F)F [ubrogepant, (3′S)-N-((3S,5S,6R)-6-methyl-2-oxo-5-phenyl-1-(2,2,2-trifluoroethyl)piperidin-3-yl)-2′-oxo-1′,2′,5,7-etrahydrospiro[cyclopenta[b]pyridine-6,3′-pyrrolo[2,3-b]pyridine]-3-carboxamide]
- effect of a high fat meal on extent of exposure (AUC0-t and AUC0-inf) ([1]; 1 × 100 mg tablet): did not affect the extent of exposure
- CL/F, arithmetic mean (CV %) ([1]; 1 × 100 mg tablet, fasted): 77.29 (29.9) L/h
- Tmax, median (minimum − maximum) ([1]; 1 × 100 mg tablet, fasted): 1.00 (1.00-3.00) h
- t1/2, mean (CV %) ([1]; 1 × 100 mg tablet, fasted): 4.99 (23.0) h
- CL/F, arithmetic mean (CV %) ([1]; 1 × 100 mg tablet, fed): 76.55 (24.1) L/h
- Tmax, median (minimum − maximum) ([1]; 1 × 100 mg tablet, fed): 3.00 (0.50-4.00) h
- t1/2, mean (CV %) ([1]; 1 × 100 mg tablet, fed): 4.64 (11.1) h
- maximum exposure (Cmax) lower under fed versus fasted conditions ([1]; 1 × 100 mg tablet, high fat meal): approximately 22%
- AUC(0-inf) ([1]; 1 × 100 mg tablet, fasted, read-out: AUC0-inf, geometric mean (geometric CV %)): 1360 ng·h/mL
- AUC(0-t) ([1]; 1 × 100 mg tablet, fasted, read-out: AUC0-t, geometric mean (geometric CV %)): 1330 ng·h/mL
- Cmax ([1]; 1 × 100 mg tablet, fasted, read-out: Cmax, geometric mean (geometric CV %)): 334 ng/mL
- AUC(0-inf) ([1]; 1 × 100 mg tablet, fasted, read-out: GLSM AUC0-inf): 1370 ng·h/mL
- AUC(0-t) ([1]; 1 × 100 mg tablet, fasted, read-out: GLSM AUC0-t): 1340 ng·h/mL
- Cmax ([1]; 1 × 100 mg tablet, fasted, read-out: GLSM Cmax): 336 ng/mL
- Tmax ([1]; 1 × 100 mg tablet, fasted, read-out: Tmax, median (minimum − maximum)): 1 h
- Vd/F ([1]; 1 × 100 mg tablet, fasted): 536 L
- half-life ([1]; 1 × 100 mg tablet, fasted): ~5 h
- AUC(0-inf) ([1]; 1 × 100 mg tablet, fed, read-out: AUC0-inf, geometric mean (geometric CV %)): 1340 ng·h/mL
- AUC(0-t) ([1]; 1 × 100 mg tablet, fed, read-out: AUC0-t, geometric mean (geometric CV %)): 1320 ng·h/mL
- Cmax ([1]; 1 × 100 mg tablet, fed, read-out: Cmax, geometric mean (geometric CV %)): 262 ng/mL
- AUC(0-inf) ([1]; 1 × 100 mg tablet, fed, read-out: GLSM AUC0-inf): 1350 ng·h/mL
- AUC(0-t) ([1]; 1 × 100 mg tablet, fed, read-out: GLSM AUC0-t): 1330 ng·h/mL
- Cmax ([1]; 1 × 100 mg tablet, fed, read-out: GLSM Cmax): 263 ng/mL
- Tmax ([1]; 1 × 100 mg tablet, fed, read-out: Tmax, median (minimum − maximum)): 3 h
- Vd/F ([1]; 1 × 100 mg tablet, fed): 507 L
- half-life ([1]; 1 × 100 mg tablet, fed): ~5 h
- Tmax ([1]; 1 × 100 mg tablet, read-out: Tmax median difference (fed−fasted)): 2 h
- GMR AUC0-inf ([1]; fed vs fasted): 98.89%
- GMR AUC0-t ([1]; fed vs fasted): 98.88%
- GMR Cmax ([1]; fed vs fasted): 78.39%
- substrate of P-gp transporter [2]: substrate
- CL/F, mean ±SD ([3]; mild hepatic impairment): 66.38 ± 26.15 L/h
- AUC0-∞ (exposure) higher than in normal hepatic function ([3]; moderate hepatic impairment): 52% and 50%
- CL/F, mean ±SD ([3]; moderate hepatic impairment): 49.78 ± 23.84 L/h
- Cmax higher than in normal hepatic function ([3]; moderate hepatic impairment): 25%
- CL/F, mean ±SD ([3]; normal hepatic function): 69.01 ± 23.54 L/h
- AUC0-∞ (exposure) higher than in normal hepatic function ([3]; severe hepatic impairment): 115%
- CL/F, mean ±SD ([3]; severe hepatic impairment): 31.23 ± 7.49 L/h
- Cmax higher than in normal hepatic function ([3]; severe hepatic impairment): 40%
- AUC(0-inf) ([3]; mild hepatic impairment, read-out: AUC0-inf, mean ±SD): 1760 ± 775 ng·h/mL
- AUC(0-t) ([3]; mild hepatic impairment, read-out: AUC0-t, mean ±SD): 1750 ± 767 ng·h/mL
- Cmax ([3]; mild hepatic impairment, read-out: Cmax, mean ±SD): 411 ± 190 ng/mL
- Tmax ([3]; mild hepatic impairment): 1.5 h
- Vd/F ([3]; mild hepatic impairment): 559 ± 358 L
- half-life ([3]; mild hepatic impairment): 6.56 ± 5.93 h
- AUC(0-t) ([3]; mild-impaired, read-out: Geometric LSM AUC0-t, Test): 1610 ng·h/mL
- AUC(0-inf) ([3]; mild-impaired, read-out: Geometric LSM AUC0-∞, Test): 1630 ng·h/mL
- Cmax ([3]; mild-impaired, read-out: Geometric LSM Cmax, Test): 375 ng/mL
- AUC(0-inf) ([3]; moderate hepatic impairment, read-out: AUC0-inf, mean ±SD): 2820 ± 2060 ng·h/mL
- AUC(0-t) ([3]; moderate hepatic impairment, read-out: AUC0-t, mean ±SD): 2780 ± 2020 ng·h/mL
- Cmax ([3]; moderate hepatic impairment, read-out: Cmax, mean ±SD): 480 ± 189 ng/mL
- Tmax ([3]; moderate hepatic impairment): 2 h
- Vd/F ([3]; moderate hepatic impairment): 365 ± 130 L
- half-life ([3]; moderate hepatic impairment): 5.95 ± 2.68 h
- AUC(0-t) ([3]; moderate-impaired, read-out: Geometric LSM AUC0-t, Test): 2300 ng·h/mL
- AUC(0-inf) ([3]; moderate-impaired, read-out: Geometric LSM AUC0-∞, Test): 2320 ng·h/mL
- Cmax ([3]; moderate-impaired, read-out: Geometric LSM Cmax, Test): 449 ng/mL
- AUC(0-inf) ([3]; normal hepatic function, read-out: AUC0-inf, mean ±SD): 1600 ± 533 ng·h/mL
- AUC(0-t) ([3]; normal hepatic function, read-out: AUC0-t, mean ±SD): 1590 ± 530 ng·h/mL
- Cmax ([3]; normal hepatic function, read-out: Cmax, mean ±SD): 406 ± 219 ng/mL
- AUC(0-t) ([3]; normal hepatic function, read-out: Geometric LSM AUC0-t, Reference): 1510 ng·h/mL
- AUC(0-inf) ([3]; normal hepatic function, read-out: Geometric LSM AUC0-∞, Reference): 1520 ng·h/mL
- Cmax ([3]; normal hepatic function, read-out: Geometric LSM Cmax, Reference): 360 ng/mL
- Tmax ([3]; normal hepatic function): 1.75 h
- Vd/F ([3]; normal hepatic function): 533 ± 320 L
- half-life ([3]; normal hepatic function): 5.6 ± 3.68 h
- AUC(0-inf) ([3]; severe hepatic impairment, read-out: AUC0-inf, mean ±SD): 3330 ± 705 ng·h/mL
- AUC(0-t) ([3]; severe hepatic impairment, read-out: AUC0-t, mean ±SD): 3310 ± 704 ng·h/mL
- Cmax ([3]; severe hepatic impairment, read-out: Cmax, mean ±SD): 509 ± 75.8 ng/mL
- Tmax ([3]; severe hepatic impairment): 1.5 h
- Vd/F ([3]; severe hepatic impairment): 248 ± 29.9 L
- half-life ([3]; severe hepatic impairment): 5.62 ± 0.62 h
- AUC(0-t) ([3]; severe-impaired, read-out: Geometric LSM AUC0-t, Test): 3250 ng·h/mL
- AUC(0-inf) ([3]; severe-impaired, read-out: Geometric LSM AUC0-∞, Test): 3270 ng·h/mL
- Cmax ([3]; severe-impaired, read-out: Geometric LSM Cmax, Test): 505 ng/mL
- increase in ubrogepant Cmax ([4]; coadministered with verapamil 240 mg vs alone): ~2.8 fold
- AUC(0-inf) ([4]; 20 mg, ubrogepant 20 mg alone (Table 9), read-out: AUC0-∞, AM): 213 ng·h/mL
- AUC(0-inf) ([4]; 20 mg, ubrogepant 20 mg alone, read-out: AUC0-∞, mean (SD)): 213 ng·h/mL
- half-life ([4]; 20 mg, ubrogepant 20 mg alone, read-out: Apparent terminal t1/2, mean (SD) (converted)): 2.5 h
- Cmax ([4]; 20 mg, ubrogepant 20 mg alone, read-out: Cmax, mean (SD)): 45.2 ng/mL
- Tmax ([4]; 20 mg, ubrogepant 20 mg alone, read-out: Tmax, median (range)): 2 h
- AUC(0-inf) ([4]; ubrogepant 20 mg + ketoconazole 400 mg, read-out: AUC0-∞, mean (SD)): 2070 ng·h/mL
- half-life ([4]; ubrogepant 20 mg + ketoconazole 400 mg, read-out: Apparent terminal t1/2, mean (SD) (converted)): 5.9 h
- Cmax ([4]; ubrogepant 20 mg + ketoconazole 400 mg, read-out: Cmax, mean (SD)): 240 ng/mL
- Tmax ([4]; ubrogepant 20 mg + ketoconazole 400 mg, read-out: Tmax, median (range)): 2.5 h
- AUC(0-inf) ([4]; ubrogepant 20 mg with verapamil 240 mg, read-out: AUC0-∞, AM): 742 ng·h/mL
- half-life ([4]; ubrogepant 20 mg with verapamil 240 mg, read-out: Apparent terminal t1/2, AM (converted)): 4.29 h
- Cmax ([4]; ubrogepant 20 mg with verapamil 240 mg, read-out: Cmax, AM): 125 ng/mL
- Tmax ([4]; ubrogepant 20 mg with verapamil 240 mg, read-out: Tmax): 2 h
- Apparent terminal t1/2, mean (SD) ([4]; ubrogepant 20 mg + ketoconazole 400 mg): 6.00 (1.27) h
- Apparent terminal t1/2, mean (SD) ([4]; ubrogepant 20 mg alone): 2.52 (0.56) h and 2.52 h
- exposure of ubrogepant on co-administration ([4]; with ketoconazole, a strong CYP3A4 inhibitor): significant increase in exposure
- exposure of ubrogepant on co-administration ([4]; with verapamil, a moderate CYP3A4 inhibitor): increase in ubrogepant exposure
